Test results taken from US20190209548A1, “LINKED DIARYL COMPOUNDS WITH ANTICANCER PROPERTIES AND METHODS OF USING THE SAME” (University of Maryland, College Park, priority 2014, published 2019).
Where two headings read alike, the source gives them in different places.

Columns and labels:
MDA-MB-231 = experiment: WST-1 IC50 determination, MDA-MB-231; format: cell-based, human; conditions: 72 hours, WST-1; for IC50: read-out: Anticancer activity IC50 ± SD, MDA-MB-231
Experimental: (§1) Cell lines and culturing. The following human cell lines were purchased from ATCC (ATCC, Manassas, Va.): prostate cancer cells (PC-3), triple negative breast cancer cells (MDA-MB-231), ovarian cancer cells (OVCAR-3), normal bone marrow (NBM) and normal fibroblast cells (MCR5A). MDA-MB-231 cells were grown at 37° C. with 5% CO2 atmosphere with DMEM (Life technologies, Carlsbad, Calif.) supplemented with heat-inactivated 10% (V/V) fetal bovine serum. OVCAR-3 and PC-3 cells were grown at 37° C. with 5% CO2 atmosphere with RPMI (Life technologies, Carlsbad, Calif.) supplemented with heat-inactivated 10% (V/V) fetal bovine serum. Cell lines were grown and maintained according to ATCC recommendations.
(§2) IC50 determination. Cell lines were seeded into 96-well plates the afternoon prior to treatment. Cell seeding number was determined by growing cells in log phase growth during drug treatment. Approximately 18 hours later, compounds were semi-serially diluted in dimethyl sulfoxide (DMSO) and then growth medium, and added to cells. Plates were incubated for 72 hours prior to addition of WST-1 (Promega, Madison Wis.). Plates were read after 4 additional hours of incubation at 37° C. using a Bio-Tek Synergy HT plate reader (Bio-Tek, Winooski, Vt.). Data was analyzed, graphed and IC50s generated using GraphPad Prism Software (Graphpad, La Jolla, Calif.).
(§3) IC50 determination: For the determination of IC50 for the azolamide class, the same protocol as described previously was followed.

PC-3 = experiment: WST-1 IC50 determination, PC-3; format: cell-based, human; conditions: 72 hours, WST-1; for IC50: read-out: Anticancer activity IC50 ± SD, PC-3
Experimental: as §1, §2, §3

OVCAR-3 = experiment: WST-1 IC50 determination, OVCAR-3; format: cell-based, human; conditions: 72 hours, WST-1; for IC50: read-out: Anticancer activity IC50 ± SD, OVCAR-3
Experimental: as §1, §2, §3

F21T = experiment: FRET melting assay, F21T; format: binding; conditions: dual-labeled DNA 0.2 μM, DMZ analogues 1 μM, potassium cacodylate 60 mM pH 7.2
Experimental: (§4) Fluorescence resonance energy transfer (FRET) assay to determine Tm in absence and presence of ligands. Dual-labelled DNA was diluted from stock (50 μM) to 400 nM in 60 mM potassium cacodylate buffer (pH 7.2) and then annealed by heating at 85° C. for 10 min followed by cooling to room temperature in the heating block. Compounds were diluted from stock (20 mM in DMSO) to 2 μM in 60 mM cacodylate buffer (pH 7.2). 25 μL annealed DNA was added to 96-well plate followed by 25 μL diluted compounds. The sequences of labelled oligonucleotides were as follows: F21T 21-mer (5′-FAM-GGGTTAGGGTTAGGGTTAGGG-TAMRA-3′) (SEQ ID NO:11), c-kit2 26-mer (5′-FAM-CCCGGGCGGGCGCGAGGGAGGGGAGG-TAMRA-3′) (SEQ ID NO:12), k-RAS21R 21-mer (5′-FAM-AGGGCGGTGTGGGAAGAGGGA-TAMRA-3′) (SEQ ID NO:13), c-MYC 22-mer (5′-FAM-TGAGGGTGGGTAGGGTGGGTAA-TAMRA-3′) (SEQ ID NO:14) and duplex 26-mer (5′-FAM-TATAGCTATATTTTTTTATAGCTATA-TAMRA-3′) (SEQ ID NO: 15). Measurements were made in triplicate by using a LightCycler 480 System RT-PCR machine (Roche) and average values were reported. Fluorescence readings were made with excitation at 450-495 nm and detection at 515-545 nm, taken at intervals of 1.2° C./min in the range 25° C. to 95° C.

c-kit2 = experiment: FRET melting assay, c-kit2; format: binding; conditions: dual-labeled DNA 0.2 μM, DMZ analogues 1 μM, potassium cacodylate 60 mM pH 7.2
Experimental: as §4

duplex = experiment: FRET melting assay, duplex DNA; format: binding; conditions: dual-labeled DNA 0.2 μM, DMZ analogues 1 μM, potassium cacodylate 60 mM pH 7.2
Experimental: as §4

c-MYC = experiment: FRET melting assay, c-MYC; format: binding; conditions: dual-labeled DNA 0.2 μM, DMZ analogues 1 μM, potassium cacodylate 60 mM pH 7.2
Experimental: as §4

k-RAS21R = experiment: FRET melting assay, k-RAS21R; format: binding; conditions: dual-labeled DNA 0.2 μM, DMZ analogues 1 μM, potassium cacodylate 60 mM pH 7.2
Experimental: as §4

[1] = Human liver microsome stability; format: in vitro ADME
Excerpt: An established method to determine the pharmacokinetic clearance of a compound in humans is to measure the degradation of the compound in the presence of human liver microsomes. The following is the half-lives of the four compounds in human liver microsomes: […]

Structure (SMILES)	Anticancer activity IC50 ± SD, MDA-MB-231 (MDA-MB-231)	Anticancer activity IC50 ± SD, PC-3 (PC-3)	Anticancer activity IC50 ± SD, OVCAR-3 (OVCAR-3)	ΔTm F21T (F21T)	ΔTm c-kit2 (c-kit2)	ΔTm duplex (duplex)	ΔTm c-MYC (c-MYC)	ΔTm k-RAS21R (k-RAS21R)	IC50 (MDA-MB-231)	IC50 (PC-3)	IC50 (OVCAR-3)	NADPH-independent T½ ([1]; human liver microsomes)	half-life ([1]; human liver microsomes, read-out: NADPH-dependent T½)	half-life ([1]; human, liver microsomes, read-out: NADPH-dependent T½)	half-life ([1]; human, liver microsomes, read-out: NADPH-independent T½)
N=C(N)c1ccc(N)cc1 [4-aminobenzamidine, reference compound]	NE (NE means not effective. Cell viability was the same or greater than 75% of the DMSO control at 20 μM compound concentration.)	NE (NE means not effective. Cell viability was the same or greater than 75% of the DMSO control at 20 μM compound concentration.)	NE (NE means not effective. Cell viability was the same or greater than 75% of the DMSO control at 20 μM compound concentration.)												
N#Cc1ccc(NN=Nc2ccc(C(=N)N)cc2)cc1 [DMZ2]	NE (NE means not effective. Cell viability was the same or greater than 75% of the DMSO control at 20 μM compound concentration.)	NE (NE means not effective. Cell viability was the same or greater than 75% of the DMSO control at 20 μM compound concentration.)	NE (NE means not effective. Cell viability was the same or greater than 75% of the DMSO control at 20 μM compound concentration.)	4.20 ± 0.00 °C	5.30 ± 0.26 °C	NE (NE means not effective binding (ΔTm < 1° C.))	8.06 ± 0.68 °C	7.49 ± 0.00 °C							
C#Cc1ccc(NN=Nc2ccc(C(=N)N)cc2)cc1 [DMZ3]				4.57 ± 0.26 °C	5.30 ± 0.26 °C	NE (NE means not effective binding (ΔTm < 1° C.))	7.13 ± 0.45 °C	5.66 ± 0.51 °C	30.2 ± 1.8 µM	22.5 ± 8.8 µM	11.8 ± 1.7 µM				
N#Cc1cccc(NN=Nc2ccc(C(=N)N)cc2)c1 [DMZ4]	NE (NE means not effective. Cell viability was the same or greater than 75% of the DMSO control at 20 μM compound concentration.)	NE (NE means not effective. Cell viability was the same or greater than 75% of the DMSO control at 20 μM compound concentration.)	NE (NE means not effective. Cell viability was the same or greater than 75% of the DMSO control at 20 μM compound concentration.)	4.57 ± 0.26 °C	6.22 ± 0.26 °C	NE (NE means not effective binding (ΔTm < 1° C.))	6.94 ± 0.26 °C	2.00 ± 0.45 °C							
C#Cc1cccc(NN=Nc2ccc(C(=N)N)cc2)c1 [DMZ5]				4.39 ± 0.26 °C	5.48 ± 0.45 °C	NE (NE means not effective binding (ΔTm < 1° C.))	7.51 ± 0.26 °C	6.39 ± 0.89 °C	20.5 ± 4.2 µM	18 ± 5.7 µM	16.8 ± 3.1 µM				
N=C(N)c1ccc(N=NNc2cccc(-c3ccccc3)c2)cc1 [DMZ6]	NE (NE means not effective. Cell viability was the same or greater than 75% of the DMSO control at 20 μM compound concentration.)	NE (NE means not effective. Cell viability was the same or greater than 75% of the DMSO control at 20 μM compound concentration.)	NE (NE means not effective. Cell viability was the same or greater than 75% of the DMSO control at 20 μM compound concentration.)	4.57 ± 0.26 °C	5.48 ± 0.45 °C	NE (NE means not effective binding (ΔTm < 1° C.))	7.49 ± 0.26 °C	4.20 ± 0.90 °C							
N=C(N)c1ccc(N=NNc2cccc(C#Cc3ccccc3)c2)cc1 [DMZ7]				4.20 ± 0.00 °C	6.40 ± 0.26 °C	NE (NE means not effective binding (ΔTm < 1° C.))	7.33 ± 0.26 °C	2.56 ± 0.00 °C	9.5 ± 1.3 µM	5.8 ± 0.2 µM	6.5 ± 2.1 µM				
N=C(N)c1ccc(N=NNc2cccc(C#Cc3ccccn3)c2)cc1 [DMZ8]				4.75 ± 0.00 °C	8.04 ± 0.26 °C	NE (NE means not effective binding (ΔTm < 1° C.))	9.32 ± 0.00 °C	14.62 ± 0.45 °C	14.4 ± 0.9 µM	10.4 ± 1.4 µM	10.7 ± 1.5 µM				
COc1ccc(C#Cc2cccc(NN=Nc3ccc(C(=N)N)cc3)c2)cc1 [DMZ10]				4.39 ± 0.26 °C	5.48 ± 0.00 °C	NE (NE means not effective binding (ΔTm < 1° C.))	8.06 ± 0.26 °C	1.65 ± 0.26 °C	5.5 µM	5 ± 0.9 µM	5.2 ± 0.4 µM				
C#Cc1ccccc1NN=Nc1ccc(C(=N)N)cc1 [DMZ11]				4.20 ± 0.00 °C	7.68 ± 0.00 °C	NE (NE means not effective binding (ΔTm < 1° C.))	8.77 ± 0.00 °C	2.19 ± 0.26 °C	23.2 µM	> 50 µM	> 25 µM				
N=C(N)c1ccc(N=NNc2ccccc2C#Cc2ccccc2)cc1 [DMZ12]				4.20 ± 0.00 °C	5.12 ± 0.26 °C	NE (NE means not effective binding (ΔTm < 1° C.))	7.15 ± 0.00 °C	2.19 ± 0.26 °C	5.1 ± 0.4 µM	5.3 ± 0.2 µM	8.1 ± 0.5 µM				
N=C(N)c1ccc(N=NNc2ccncc2)cc1 [DMZ14]	NE (NE means not effective. Cell viability was the same or greater than 75% of the DMSO control at 20 μM compound concentration.)	NE (NE means not effective. Cell viability was the same or greater than 75% of the DMSO control at 20 μM compound concentration.)	NE (NE means not effective. Cell viability was the same or greater than 75% of the DMSO control at 20 μM compound concentration.)	4.20 ± 0.00 °C	6.58 ± 0.78 °C	NE (NE means not effective binding (ΔTm < 1° C.))	6.97 ± 0.26 °C	2.19 ± 0.26 °C							
CC(C)NC(=N)c1ccc(/N=N/c2c(N)ncc3ccc(Br)cc23)cc1 [HSY430-5]												>4 h	> 4 h		
CCCCNC(=N)c1ccc(/N=N/c2c(N)ncc3ccc(Br)cc23)cc1 [HSY430-6]														2.57 h	2.38 h
Nc1cccc(C#Cc2ccc(F)cc2)c1 [compound 15, reference compound]	NE (NE means not effective. Cell viability was the same or greater than 75% of the DMSO control at 20 μM compound concentration.)	NE (NE means not effective. Cell viability was the same or greater than 75% of the DMSO control at 20 μM compound concentration.)	NE (NE means not effective. Cell viability was the same or greater than 75% of the DMSO control at 20 μM compound concentration.)												
